Series [1] concerns PDE1. Put plainly: Dynamic PET imaging in rat brains. In kind it is in vivo, SD rats. On the procedure:
Encouraged by the results of in vitro evaluation by autoradiography studies with the ligand [^11C]-PF-04822163, dynamic PET imaging studies were conducted with [^11C]-PF-04822163 on SD rats. […] Additionally, an evident washout was observed after initial high uptakes in all brain regions. To assess the in vivo binding specificity of [^11C]-PF-04822163 to PDE1, we carried out blocking studies with the pretreatment of unlabeled PF-04822163 (1 mg/kg, 10 min before the administration of [^11C]-PF-04822163). […] These findings indicate that further optimization of the pharmacological and ADME properties is warranted to obtain a suitable probe for in vivo imaging of PDE1.
4 PET studies of [^11C]-PF-04822163 in rat brains. […]
PET imaging was conducted as previously reported. , An Inveon PET scanner (Siemens) was used for dynamic PET imaging studies, [^11C]-PF-04822163 (ca. 17.5 MBq/1.5 mL) was intravenously injected via the tail vein via a preinstalled catheter, and dynamic PET images were acquired in a 3D mode for a period of 60 min. […] The dynamic PET images were reconstructed using ASIPro VW software, and volumes of interest were calculated.

Series [2] is described as follows: Whole-body biodistribution study in mice. The class given is in vivo, ddY mice. On the procedure:
To investigate the distribution of [^11C]-PF-04822163 in the whole body, we conducted a biodistribution study in ddY mice (Figure ). The radioactivity levels in major organs were assessed at 1, 5, 15, 30, and 60 min after the administration of [^11C]-PF-04822163. […] After the initial uptake, radioactivity accumulations decreased in almost all organs, while the uptake in the small intestine increased, and liver uptake remained at a high level (5% ID/g at 60 min), indicating a hepatobiliary elimination route.
The biodistribution experiment was performed according to previous reports. , In brief, [^11C]-PF-04822163 (4.44 MBq/0.1 mL) was injected (i.v.) into ddY mice via the tail vein. After the administration of [^11C]-PF-04822163, the mice were sacrificed at different time points (1, 5, 15, 30, and 60 min), and tissues of interest were collected. The tissues were weighted and measured by a gamma counter.

Series [3] is described as follows: Radiometabolic analysis in rat brain and plasma. In kind it is in vivo, SD rats. Conditions: 15 min postadministration. On the procedure: To gain insight into the in vivo stability of [^11C]-PF-04822163, we performed radiometabolic analysis in the brain and plasma of SD rats (Figure ). At 15 min postadministration of [^11C]-PF-04822163, 95% of [^11C]-PF-04822163 remained unchanged in the brain, while in plasma, 26% remained unchanged.
The radiometabolic analysis was performed following a previous report. After the intravenous injection of [^11C]-PF-04822163, SD rats were sacrificed at 15 min postinjection. Plasma samples were quenched with acetonitrile and centrifuged, and the supernatant was assessed by radio-HPLC. The brain was collected and homogenized and quenched with acetonitrile, and the resulting homogenate was centrifuged. The supernatant was analyzed by radio-HPLC.

A further series deals with T1, 5-HT6 (Homo sapiens, UniProt P50406).
T1 construct: NIMH Psychoactive Drug Screening Program (PDSP)
T1 sequence (P50406 whole entry): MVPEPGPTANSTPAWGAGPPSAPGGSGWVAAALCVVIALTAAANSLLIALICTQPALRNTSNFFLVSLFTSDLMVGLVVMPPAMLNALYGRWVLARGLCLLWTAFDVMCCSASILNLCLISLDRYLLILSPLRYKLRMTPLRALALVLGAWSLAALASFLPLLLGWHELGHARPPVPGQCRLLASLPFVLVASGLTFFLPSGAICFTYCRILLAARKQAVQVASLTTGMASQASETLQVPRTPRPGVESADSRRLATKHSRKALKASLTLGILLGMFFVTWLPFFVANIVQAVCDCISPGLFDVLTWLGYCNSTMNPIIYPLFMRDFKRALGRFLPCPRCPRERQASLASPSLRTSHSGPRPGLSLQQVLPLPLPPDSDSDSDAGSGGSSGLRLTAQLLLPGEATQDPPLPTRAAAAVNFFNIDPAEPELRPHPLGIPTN
Put plainly: Off-target binding, 5-HT6 (NIMH PDSP). An excerpt: (§1) Furthermore, we investigated the off-target binding of PF-04822163 in vitro against 65 major CNS targets, including ion channels, transporters, and GPCR enzymes (Figure S2 in the Supporting Information, supported by the NIMH Psychoactive Drug Screening Program (PDSP)).
(§2) % Inhibition of Target Activity
(§3) Figure S2. Off-target pharmacological evaluation of compound PF-04822163 against major CNS targets, including common GPCRs, enzymes, ion channels, and transporters: initial screening at a concentration of 10 μM (supported by the NIMH PDSP). All data are […]
(§4) Figure S3. The time-activity-curves (0-60 min) of PET studies with [11C]PF-04822163 in rat brains under baseline and blocking conditions. All data were referred to as mean ± SEM,

Series [4] has as its target T2, PDE1B (Homo sapiens, UniProt Q01064). Conditions: introduction, literature value; ref Humphrey et al., 2014; cited from earlier work.
Series [5] has as its system 65 major CNS targets, including ion channels, transporters, and GPCR enzymes. Put plainly: Off-target binding screen against 65 major CNS targets (NIMH PDSP). The settings on record: 10 μM testing concentration; except 5-HT2B and 5-HT6.
From the text: as §1, §2, §3, §4

Series [6] is described as follows: Log D by shake flask method (n-octanol/PBS). In kind it is physicochemical. Conditions: measured with [11C]PF-04822163. On the procedure: as §1
The measurement of log D was performed as previously reported. In brief, [^11C]-PF-04822163, n-octanol (3 mL), and PBS (1×, 3 mL) were added to a centrifuge tube, and vortexing was conducted for 3 min followed by centrifugation (∼14,000 rpm) for 5 min. PBS (around 500 μL) and n-octanol (around 50 μL) were then weighted and measured by a gamma counter.

The next series deals with PDE10A (Homo sapiens, UniProt Q9Y233). Put plainly: Potency toward other PDEs (PDE10A). The class given is biochemical.
Chain of PDE10A (Q9Y233 whole entry, species assumed): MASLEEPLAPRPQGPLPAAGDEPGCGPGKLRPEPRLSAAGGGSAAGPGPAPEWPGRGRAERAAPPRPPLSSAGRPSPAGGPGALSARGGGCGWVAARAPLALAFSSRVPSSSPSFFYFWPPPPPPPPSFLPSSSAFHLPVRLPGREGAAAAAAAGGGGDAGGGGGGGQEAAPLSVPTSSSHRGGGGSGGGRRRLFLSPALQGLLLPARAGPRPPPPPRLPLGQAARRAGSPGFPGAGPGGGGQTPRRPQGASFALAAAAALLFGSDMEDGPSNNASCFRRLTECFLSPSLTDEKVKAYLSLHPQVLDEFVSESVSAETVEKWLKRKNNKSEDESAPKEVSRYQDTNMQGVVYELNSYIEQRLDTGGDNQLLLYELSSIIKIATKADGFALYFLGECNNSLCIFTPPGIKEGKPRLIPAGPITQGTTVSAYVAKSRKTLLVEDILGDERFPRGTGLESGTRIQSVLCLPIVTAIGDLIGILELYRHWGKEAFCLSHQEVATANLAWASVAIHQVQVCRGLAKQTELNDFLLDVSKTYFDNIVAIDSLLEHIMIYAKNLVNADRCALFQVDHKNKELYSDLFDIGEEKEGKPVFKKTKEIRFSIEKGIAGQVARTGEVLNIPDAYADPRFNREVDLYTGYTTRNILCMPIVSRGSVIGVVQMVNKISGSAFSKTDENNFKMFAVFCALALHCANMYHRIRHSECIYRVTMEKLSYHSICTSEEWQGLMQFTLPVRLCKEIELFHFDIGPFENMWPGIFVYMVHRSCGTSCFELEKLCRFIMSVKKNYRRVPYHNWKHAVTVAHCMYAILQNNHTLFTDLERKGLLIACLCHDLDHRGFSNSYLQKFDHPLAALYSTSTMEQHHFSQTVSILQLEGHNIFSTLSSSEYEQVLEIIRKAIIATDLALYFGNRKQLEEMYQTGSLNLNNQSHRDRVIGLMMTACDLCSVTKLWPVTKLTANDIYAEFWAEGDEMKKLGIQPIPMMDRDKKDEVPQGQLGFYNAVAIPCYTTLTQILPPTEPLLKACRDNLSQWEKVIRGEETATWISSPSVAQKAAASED
Another series deals with T3, 5-HT2B (Homo sapiens, UniProt P41595).
T3 construct: NIMH Psychoactive Drug Screening Program (PDSP)
T3 sequence (P41595 whole entry): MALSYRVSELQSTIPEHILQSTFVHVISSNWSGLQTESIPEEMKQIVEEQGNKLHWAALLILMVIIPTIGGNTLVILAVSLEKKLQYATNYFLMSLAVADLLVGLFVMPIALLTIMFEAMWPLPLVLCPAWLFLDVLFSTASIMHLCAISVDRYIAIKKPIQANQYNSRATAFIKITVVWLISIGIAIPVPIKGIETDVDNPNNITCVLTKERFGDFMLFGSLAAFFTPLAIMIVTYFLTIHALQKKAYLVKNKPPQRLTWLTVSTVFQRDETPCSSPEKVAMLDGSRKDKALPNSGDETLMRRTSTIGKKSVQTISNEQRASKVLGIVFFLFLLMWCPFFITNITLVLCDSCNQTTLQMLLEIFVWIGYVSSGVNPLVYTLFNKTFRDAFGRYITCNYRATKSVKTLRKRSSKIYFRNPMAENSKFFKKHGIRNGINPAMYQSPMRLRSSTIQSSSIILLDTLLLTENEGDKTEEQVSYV
The series is described as follows: Off-target binding, 5-HT2B (NIMH PDSP).
From the text: as §1, §2, §3, §4

The target in another series is PDE1C (Homo sapiens, UniProt Q14123). Put plainly: PDE1C inhibition. The class given is biochemical.
Chain of PDE1C (Q14123 whole entry, species assumed): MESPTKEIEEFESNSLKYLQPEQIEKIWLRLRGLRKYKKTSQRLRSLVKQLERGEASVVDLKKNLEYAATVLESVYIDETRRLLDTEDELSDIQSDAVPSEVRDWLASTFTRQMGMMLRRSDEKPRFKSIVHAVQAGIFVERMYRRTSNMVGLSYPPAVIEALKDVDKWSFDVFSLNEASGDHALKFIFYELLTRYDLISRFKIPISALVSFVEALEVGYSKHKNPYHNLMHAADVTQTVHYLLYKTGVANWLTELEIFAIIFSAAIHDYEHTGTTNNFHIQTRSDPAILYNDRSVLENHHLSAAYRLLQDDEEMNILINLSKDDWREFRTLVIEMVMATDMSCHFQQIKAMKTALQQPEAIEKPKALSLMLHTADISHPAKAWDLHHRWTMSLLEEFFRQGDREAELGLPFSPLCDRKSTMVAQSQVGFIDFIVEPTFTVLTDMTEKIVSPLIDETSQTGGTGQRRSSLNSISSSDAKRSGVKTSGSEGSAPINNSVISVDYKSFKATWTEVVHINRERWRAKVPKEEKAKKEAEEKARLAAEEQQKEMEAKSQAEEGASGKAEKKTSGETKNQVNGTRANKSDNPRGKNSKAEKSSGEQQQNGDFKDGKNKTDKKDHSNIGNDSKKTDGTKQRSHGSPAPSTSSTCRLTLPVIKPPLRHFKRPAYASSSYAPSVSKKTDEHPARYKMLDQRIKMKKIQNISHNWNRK
A further series concerns the target PDE1A (Homo sapiens, UniProt P54750). Put plainly: PDE1A inhibition. In kind it is biochemical.
In series [7] the test system is PDE1B. The series is described as follows: In vitro autoradiography with [11C]PF-04822163 on rat brain sections, blocking. In kind it is binding, Sprague–Dawley (SD) rat. Conditions: blocker 10 μM, [11C]PF-04822163 autoradiography. The procedure: With the ligand [^11C]-PF-04822163 in hand, in vitro autoradiography studies were conducted on Sprague–Dawley (SD) rat brain sections to validate its binding specificity toward PDE1. […] In the autoradiography studies on the coronal brain sections, high radioactivity levels were found in the caudate putamen, nucleus accumbens, and olfactory tubercle (Figure a,c).
3 In vitro autoradiography studies of [^11C]-PF-04822163 on rat brain sections. (a) Representative images of autoradiography studies with [^11C]-PF-04822163 under baseline and blocking conditions (PF-04822163 or PF-04827736, 10 μM), (b) quantification of autoradiography studies of [^11C]-PF-04822163 on sagittal rat brain sections, and (c) quantification of autoradiography studies of [^11C]-PF-04822163 on coronal rat brain sections. All data are means ± SD, n ≥ 8. Statistical analysis was conducted with Student’s two-tailed t tests, and asterisks indicated the statistical significance as follows: *p < 0.05, **p ≤ 0.01, and ***p ≤ 0.001.
Autoradiography studies were performed according to previous reports. , In brief, the rat brain sections (20 μm) were preincubated with a Tris–HCl buffer (50 mM) at room temperature for 20 min followed by incubation with [^11C]-PF-04822163 (168 Bq/mL). […] The radioactivity values were normalized as a percentage of the radioactivity relative to the control.

Series [8] has as its target T2, PDE1B. Put plainly: PDE1B inhibition. The class given is biochemical.
Series [9] concerns PDE1. The settings on record: cited from earlier work; for IC50: introduction, literature value.

Like-named read-outs stand apart in the source and are kept apart here.

T2 sequence (Q01064 whole entry, species assumed): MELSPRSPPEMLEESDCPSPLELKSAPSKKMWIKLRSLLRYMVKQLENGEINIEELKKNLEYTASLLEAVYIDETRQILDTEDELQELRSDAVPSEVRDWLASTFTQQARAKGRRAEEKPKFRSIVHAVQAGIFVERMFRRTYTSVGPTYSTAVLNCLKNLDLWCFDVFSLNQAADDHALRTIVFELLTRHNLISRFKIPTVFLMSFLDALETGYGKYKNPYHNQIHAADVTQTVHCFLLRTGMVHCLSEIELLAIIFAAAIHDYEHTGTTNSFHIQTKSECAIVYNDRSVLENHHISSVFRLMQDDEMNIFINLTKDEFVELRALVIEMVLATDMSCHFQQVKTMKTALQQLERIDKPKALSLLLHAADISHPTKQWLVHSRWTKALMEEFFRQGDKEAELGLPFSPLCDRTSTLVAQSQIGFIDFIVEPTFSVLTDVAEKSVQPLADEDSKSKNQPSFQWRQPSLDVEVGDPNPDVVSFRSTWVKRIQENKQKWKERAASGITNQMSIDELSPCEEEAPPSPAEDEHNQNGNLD
Chain of PDE1A (P54750 whole entry, species assumed): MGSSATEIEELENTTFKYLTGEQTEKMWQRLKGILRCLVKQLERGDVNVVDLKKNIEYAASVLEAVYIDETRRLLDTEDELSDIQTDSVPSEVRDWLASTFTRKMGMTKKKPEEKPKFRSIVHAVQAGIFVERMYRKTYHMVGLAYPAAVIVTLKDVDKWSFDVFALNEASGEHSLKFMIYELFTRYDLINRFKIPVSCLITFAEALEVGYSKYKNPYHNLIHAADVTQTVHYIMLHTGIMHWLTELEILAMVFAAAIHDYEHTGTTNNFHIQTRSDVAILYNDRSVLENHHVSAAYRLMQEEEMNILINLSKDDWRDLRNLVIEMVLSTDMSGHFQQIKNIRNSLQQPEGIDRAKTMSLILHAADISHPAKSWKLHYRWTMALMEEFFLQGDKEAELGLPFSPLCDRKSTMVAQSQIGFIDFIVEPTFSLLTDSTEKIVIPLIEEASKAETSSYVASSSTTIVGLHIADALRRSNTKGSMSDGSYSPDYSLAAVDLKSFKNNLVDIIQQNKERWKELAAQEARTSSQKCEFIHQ

With `COc1c(O[11CH3])ccc2c([C@H]3CCc4ccc(Cl)cc43)ncnc12` [[^11C]PF-04822163], in the series on PDE1 [1] (striatum, 3 min post-tracer administration, baseline), the SUVmax is given as 2.0. Besides, in [2] (at 1 and 5 min, heart, lung, liver, kidney, adrenal, and brain), the uptake was at least 3 % ID/g. This molecule yielded a liver uptake in [2] (at 60 min) of 5 % ID/g. The “remained unchanged in the brain” value in series [3] (rat brain) is 95%. The “remained unchanged in plasma” value in [3] (rat plasma) was determined as 26%.
`COc1ccc2c([C@H]3CCc4ccc(Cl)cc43)ncnc2c1OC` [PF-04822163, (S)-4-(6-Chloro-2,3-dihydro-1H-inden-1-yl)-7,8-dimethoxyquinazoline]: the melting point was in the range of 122 to 124 °C. The inhibition constant Ki at 5-HT6 was 4860 nM. Besides, on PDE1B [4], the “selectivity over other PDEs” value is on record as over 100 fold. In addition, the “reduction in uptake (AUC) in different brain regions” value with PDE1 [1] (pretreatment with unlabeled blocker 1 mg/kg, 10 min before [11C]PF-04822163, AUC 0–20 min) is 7–12%. Further, the “off-target binding (>50% inhibition)” value in [5] is “no significant off-target binding”. Besides, in [6], the logD was determined as 2.53. The same molecule registered an IC50 at PDE10A of 252 nM. Moreover, at 5-HT2B, the inhibition constant (Ki) stood at 262 nM. Besides, at PDE1C, the half-inhibitory concentration (IC50) stood at 7 nM and the “selectivity over other PDEs for PDE1C” value is on record as 36 fold. For the same molecule, at PDE1A, 2 nM corresponded to half-maximal inhibition (IC50) and the “selectivity over other PDEs for PDE1A” value came to 126 fold. In addition, the “decrease in radioactivity signal in PDE1B-rich regions” value with PDE1B [7] is recorded as 47–71%. Besides, at PDE1B [8], half-maximal inhibition (IC50) required 2.4 nM and the “selectivity over other PDEs for PDE1B” value stood at 105 fold.
Take `CN1C(=O)c2c(nn(Cc3ccc(-c4cccc(F)n4)cc3)c2Nc2ccccc2)N2C1=N[C@@H]1CCC[C@@H]12` [ITI-214]: in the series on PDE1 [9] (PDE1 over other PDEs, ref Li et al., 2016), the “selectivity over other PDEs” value is listed as over 1000 fold. The IC50 in the series on PDE1 [9] (ref Li et al., 2016) was 0.058 nM.
On to `CCOC(=O)C1=C[C@]2(CC)CCCN3CCc4c(n1c1ccccc41)[C@@H]32` [Vinpocetine], for which the 50% inhibitory concentration (IC50) in the series with PDE1 [9] was 30000 nM.

As a reminder, the Ki is the equilibrium dissociation constant of an inhibitor or competing ligand from its target. For orientation: logD means the decadic logarithm of the distribution of all forms, ionised or not, between an organic phase and buffer at a given pH. High values mean higher lipophilicity, low ones lower lipophilicity. A word on the IC50: it is the concentration at which inhibition is half-maximal. The term melting point denotes the temperature, or range, at which the solid turns liquid.

Source of the values: PMC11541501, “Development of a Candidate ^11C‑Labeled Selective Phosphodiesterase 1 Radioligand for Positron Emission Tomography” (ACS Omega, 2024).
